Among the data in PubChem BioAssay (NCI) are GI50 and TGI values, retold here.

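Cells were grown in 96-well plates and exposed to each compound for 48 hours at five concentrations; endpoints were interpolated linearly between bracketing concentrations, or set to the highest concentration if not reached. GI50: concentration for 50% inhibition of growth. TGI: concentration producing complete growth inhibition.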 Some results are limits rather than exact numbers.

Some test systems named below: A498 renal; CAKI-1 renal; HCT-116 colon; HOP-62 NSCLC; LOX IMVI melanoma; NCI/ADR-RES ovarian; OVCAR-4 ovarian; SK-MEL-28 melanoma; UACC-257 melanoma; UO-31 renal.
What all share (experiment): NCI-60 cell line screen, 48 h

On to `COc1cccc2c1nc1cccc(OC)c1[n+]2[O-]`, for which the GI50 in the test on A498 renal is 2.87 µM; in the test with CAKI-1 renal it was 2.44 µM; in the test on HCT-116 colon, 3.64 µM; with HOP-62 NSCLC, 4.14 µM; in the test on LOX IMVI melanoma it was 4.23 µM; in the test on NCI/ADR-RES ovarian, 5.51 µM. Moreover, the GI50 with OVCAR-4 ovarian is 4.16 µM; with SK-MEL-28 melanoma, 6.31 µM; in the test on UACC-257 melanoma, 13.1 µM; in the test with UO-31 renal, 3.07 µM. For the same compound, the TGI in the test with A498 renal is 16.2 µM; in the test with CAKI-1 renal, 10.4 µM; in the test on HCT-116 colon, 16.9 µM; in the test with HOP-62 NSCLC, 17.8 µM; with LOX IMVI melanoma, 18.4 µM; with NCI/ADR-RES ovarian, 28.4 µM. Further, the TGI in the test on OVCAR-4 ovarian was 20.9 µM; in the test with SK-MEL-28 melanoma, 20.2 µM; in the test with UACC-257 melanoma, 35 µM; in the test on UO-31 renal it was 15.6 µM.
As for `COc1cc(CNc2nc3cc(N)cc(N)c3nc2-c2ccccc2)cc(OC)c1OC`, the GI50 in the test with A498 renal was 6.34 µM; in the test on CAKI-1 renal, 1.9 µM; in the test on HCT-116 colon, 9.84 µM; in the test on HOP-62 NSCLC, 17.1 µM; with LOX IMVI melanoma, 3.19 µM; in the test on NCI/ADR-RES ovarian, 10.2 µM. Also, the GI50 in the test with SK-MEL-28 melanoma was 8.53 µM; with UACC-257 melanoma, 3.45 µM; in the test with UO-31 renal it was 11.1 µM. Further, the TGI in the test on A498 renal was 14.7 µM; in the test on CAKI-1 renal it was 8.76 µM; in the test on HCT-116 colon it was 19.1 µM; in the test with HOP-62 NSCLC, more than 50 µM; in the test with LOX IMVI melanoma, 10.4 µM; in the test with NCI/ADR-RES ovarian it was 21.8 µM. Moreover, the TGI was 17.6 µM in the test with SK-MEL-28 melanoma, 10.8 µM with UACC-257 melanoma and more than 50 µM in the test on UO-31 renal.
Consider `NC(=O)c1ccc2nc(-c3ccc(C4(N)CCC4)cc3)c(-c3ccccc3)n2n1`, for which the GI50 in the test with A498 renal is 0.0734 µM; with CAKI-1 renal it was 10.3 µM; in the test on HCT-116 colon, 10.2 µM; with HOP-62 NSCLC, 11.6 µM; with LOX IMVI melanoma, 10.5 µM; in the test on NCI/ADR-RES ovarian it was 15.1 µM. Further, the GI50 with OVCAR-4 ovarian is 16 µM; in the test with SK-MEL-28 melanoma it was 10.9 µM; in the test with UACC-257 melanoma it was 13.2 µM; in the test with UO-31 renal it was 0.409 µM. Further, the TGI in the test on A498 renal was 0.642 µM; in the test with CAKI-1 renal, 23.9 µM; with HCT-116 colon it was 22.6 µM; in the test on HOP-62 NSCLC, 27.7 µM; with LOX IMVI melanoma, 24 µM; in the test with NCI/ADR-RES ovarian, 41.2 µM. Moreover, the TGI in the test with OVCAR-4 ovarian was determined as 44.6 µM; in the test with SK-MEL-28 melanoma it was 23.7 µM; in the test on UACC-257 melanoma, 29.7 µM; in the test on UO-31 renal it was 13.5 µM.
For the compound `O=C(Nc1ccc(Cl)cc1F)c1cc(F)ccc1O`, the GI50 with A498 renal is 0.251 µM; with CAKI-1 renal, 0.588 µM; in the test on HCT-116 colon, 0.702 µM; with HOP-62 NSCLC, 1.5 µM; in the test on LOX IMVI melanoma it was 0.522 µM; in the test on NCI/ADR-RES ovarian, 1.63 µM. The GI50 is 0.941 µM in the test with OVCAR-4 ovarian, 0.485 µM with SK-MEL-28 melanoma, 0.853 µM in the test on UACC-257 melanoma and 0.314 µM in the test on UO-31 renal. For the same compound, the TGI in the test on A498 renal was 0.98 µM; with CAKI-1 renal, 4.54 µM; in the test with HCT-116 colon it was 3.51 µM; in the test on HOP-62 NSCLC it was 19.8 µM; in the test with LOX IMVI melanoma, 5.31 µM; in the test with NCI/ADR-RES ovarian, 7.1 µM. Besides, the TGI with OVCAR-4 ovarian was more than 29.6 µM; in the test on SK-MEL-28 melanoma, 2.63 µM; in the test with UACC-257 melanoma, 7.2 µM; in the test on UO-31 renal, 3.38 µM.
Turning to `CN1C(=O)N(C)C2C1NN=c1s/c(=C\c3c[nH]c4ccccc34)c(=O)n12` (stereo not drawn), the GI50 in the test on A498 renal is 0.0688 µM; with CAKI-1 renal, 0.0309 µM; with HCT-116 colon, 0.0371 µM; in the test with HOP-62 NSCLC, 0.046 µM; in the test with LOX IMVI melanoma, 0.0518 µM; in the test on NCI/ADR-RES ovarian, 0.034 µM. For the same compound, the GI50 in the test with SK-MEL-28 melanoma was 34.5 µM; in the test on UACC-257 melanoma it was more than 100 µM. Also, the TGI is 0.602 µM in the test with A498 renal; more than 100 µM in the test on CAKI-1 renal; more than 100 µM with HCT-116 colon; 52.6 µM in the test on HOP-62 NSCLC; more than 100 µM with LOX IMVI melanoma; more than 100 µM in the test with OVCAR-4 ovarian. Besides, the TGI in the test with SK-MEL-28 melanoma and in the test with UACC-257 melanoma was more than 100 µM each time.
Turning to `CN(C)c1ccc(/C=C/c2ccnc3ccc4ccccc4c23)cc1`, the TGI was 69.1 µM with A498 renal; more than 100 µM in the test with CAKI-1 renal; more than 100 µM in the test on HCT-116 colon; more than 100 µM with HOP-62 NSCLC; more than 100 µM in the test with LOX IMVI melanoma; more than 100 µM with NCI/ADR-RES ovarian. For the same compound, the TGI in the test with SK-MEL-28 melanoma, with UACC-257 melanoma and in the test with UO-31 renal was more than 100 µM each time.
On to `Nc1c(S(=O)(=O)O)cc(Nc2cccc(S(N)(=O)=O)c2)c2c1C(=O)c1ccccc1C2=O`, for which the TGI was more than 100 µM in the test with A498 renal; more than 100 µM with CAKI-1 renal; more than 100 µM in the test with HCT-116 colon; 71.9 µM in the test with HOP-62 NSCLC; more than 100 µM with LOX IMVI melanoma; more than 100 µM in the test on NCI/ADR-RES ovarian. Further, the TGI with OVCAR-4 ovarian, with SK-MEL-28 melanoma, in the test with UACC-257 melanoma and with UO-31 renal was more than 100 µM throughout.
Regarding `COc1cc(/C=C2\CCCC3C2=Nc2ccccc2NC3c2cc(OC)c(OC)c(OC)c2)cc(OC)c1OC` (stereo not drawn), the GI50 is 1.49 µM in the test with A498 renal; 3.31 µM with CAKI-1 renal; 0.968 µM in the test with HCT-116 colon; 1.86 µM in the test on HOP-62 NSCLC; 1.81 µM in the test on LOX IMVI melanoma; 0.957 µM with NCI/ADR-RES ovarian. The GI50 is 2.14 µM with OVCAR-4 ovarian, 2.02 µM in the test on SK-MEL-28 melanoma, 1.3 µM in the test on UACC-257 melanoma and 1.66 µM in the test with UO-31 renal. Further, the TGI was 6.41 µM in the test with A498 renal; more than 100 µM with CAKI-1 renal; 2.17 µM in the test on HCT-116 colon; 8.4 µM in the test on HOP-62 NSCLC; 5.86 µM with LOX IMVI melanoma; more than 100 µM in the test on NCI/ADR-RES ovarian. Further, the TGI in the test on OVCAR-4 ovarian was more than 100 µM; in the test with SK-MEL-28 melanoma, 5.24 µM; in the test on UACC-257 melanoma it was 6.77 µM; in the test with UO-31 renal, 4.48 µM.
